# Reference: paper PMC3006138, “Fexinidazole – A New Oral Nitroimidazole Drug Candidate Entering Clinical Development for the Treatment of Sleeping Sickness” (PLoS Neglected Tropical Diseases, 2010)
# Values joined by “and” are separate entries in the source; they are usually repeats but may differ in a detail not shown here. Equal entries are not always repeated.
# Legend:
# [1] = Mouse single-dose plasma pharmacokinetics; assay type: in vivo; conditions: for AUC(0-t) / Cmax / AUC(0-inf) / Tmax / half-life / bioavailability / AUC0–24: plasma; for bioavailability: fexinidazole 25 mg/kg po vs 1 mg/kg iv
# Procedure: Blood samples were taken via into heparinised collection tubes and, following centrifugation, plasma was removed and stored frozen until required for assay.
# All PK evaluations were carried out using validated high performance liquid chromatography (HPLC) and LC-MS assays, as per standard operating procedures of the laboratories involved.
# One mouse PK and brain sampling study was carried out by BioDynamics Ltd., Rushden, UK, according to internal Standard Operating Procedures as a non-GLP regulated study, and animals were maintained as required by the “Code of practice for the housing and care of animals used in scientific procedures” (Home Office, London, 1989).
# BioDynamics Study No: DND/01
# Two groups of female mice were dosed as follows:
# Number Treatment Dose (mg/kg) Route
# All doses are expressed as free base
# Intravenous doses were administered into a lateral tail vein using an appropriately sized syringe and 25G needle and the oral formulation by oral gavage using a polypropylene gavage tube. All doses were given as a single bolus dose at a constant dose volume of 10.0 mL/kg.
# 1.6 Blood sample collection
# At each sampling time point, three animals in each treatment group were deeply anaesthetised using isoflurane and blood samples (approximately 1 mL) taken into individual heparinised tubes by cardiac puncture, following which the animals were killed by cervical fracture. Samples were collected at the following times post-dose:
# Following collection, the blood samples were centrifuged (approximately 10000 g, 2 min at 4 °C) and the plasma retained as one aliquot at approximately -70°C prior to analysis of test material concentrations at BioDynamics by LC-MS/MS.
# 1.7 Collection of terminal brain samples
# Following collection of the terminal blood sample the cranium of each mouse was carefully opened and the brain removed. Excess blood was washed from the brain with distilled water and any excess fluid blotted on absorbent paper. The brain was then snap frozen using liquid nitrogen and placed into a suitably labelled container and stored frozen at approximately -70°C pending analysis.
# All of the plasma samples together with the brains from the 15 minute time point were analysed for concentrations of the test material and its sulfone and sulfoxide metabolites. In addition the brains from the 5 and 30 minute time points for the intravenously treated and the 30 and 60 minute time points for the orally treated animals were analysed for concentrations of Fexinidazole and its sulfone and sulfoxide metabolites using an LC-MS/MS method developed at BioDynamics.
# All samples were treated as temperature sensitive. Blood samples were collected onto wet ice, followed by centrifugation at 4 °C. Plasma and brain samples were snap frozen on dry ice (plasma) or liquid nitrogen (brains) prior to long term storage at less than -70 °C pending analysis.
# Summed transitions were used to enhance sensitivity. No instability of the test materials was noted during the course of analysis or on re-injection of the samples into the mass spectrometer under the […]
# 3. Pharmacokinetic analysis
# The plasma concentration vs time curves obtained following intravenous and oral administration of the test compounds to female mice were analysed using WinNonLin (Version 4.1, Scientific Consulting
# Inc. USA). The kinetic data were characterised by a non-compartmental analysis (NCA).
# The following pharmacokinetic parameters were derived from the profiles: maximum peak plasma concentration (Cmax); the time of maximum observed concentration (Tmax); the terminal half life (T½), and area under the plasma concentration curve (AUC), 3.1.1 Area under the curve (AUC)
# The AUC was determined using the linear/log trapezoidal method. A value of zero was used for any plasma concentrations recorded as below the limits of quantification (LLOQ). The AUCinf (observed) was calculated as the area under the curve from the time of dosing extrapolated to time infinity based on the observed concentrations. The AUClast was also determined. […]
# [2] = Dog single-dose IV and oral pharmacokinetics; assay type: in vivo; conditions: for AUC(0-t): read-out: AUC0-t(last); for half-life: read-out: t1/2,z (converted)
# Procedure: Pharmacokinetic Report for the study No. 0320-2007
# Fexinidazole was given as IV and oral administrations to male Beagle dogs according to the […]
# Dog ID Route Dose Formulation
# IV dose was administered via the radial vein, the oral dose was administered by gastric […]
# gavage. A washout period of […] was allowed between the IV (Day 1) and oral (Day 12) […]
# 4.2. Sample Collection and Handling
# Blood was withdrawn from jugular vein and collected in heparinized plastic tubes kept on an […]
# ice/water bath, then centrifuged at 1200g for 10 minutes at 4°C. Three aliquots of the […]
# separated plasma (about 0.2 mL) was stored at -80°C until analysis for Fexinidazole and its […]
# sulphone and sulphoxide metabolites. Blood was taken at pre-dose and 0.083 (5 minutes), […]
# 4.3. Bioanalytical Method
# Plasma concentrations of Fexinidazole and its sulphone and sulphoxide metabolites were […]
# determined by LC-MS-MS method following plasma protein precipitation. The lower limit […]
# of quantification of the bioanalytical method was 5 ng/mL for all analytes. Bioanalytical data […]
# Details of the bioanalytical method used are reported in Appendix 2 and analytical […]
# performances of calibration standards are reported in Appendix 3.
# 4.4. Pharmacokinetic Calculations
# Pharmacokinetic evaluations of Fexinidazole and sulphone and sulphoxide metabolites were […]
# For the calculations, the pre-dose concentrations of Fexinidazole were set equal to C0.083 […]
# after IV administration, whilst the pre-dose concentrations of Fexinidazole after oral […]
# administration and the pre-dose concentrations of the metabolites after both doses were set […]
# Nerviano Medical Sciences
# After IV and oral dosing, Cmax (C0.083 for Fexinidazole after IV dosing) and tmax of each […]
# concentration. After both doses, for each compound, the area under plasma concentration vs. […]
# last detectable concentration. The half-life of the terminal phase, t1/2,z, was determined by […]
# linear regression analysis of the natural-log concentration vs. time curve, where t1/2,z = […]
# ln(2)/slope of the regression line. […]
# infinite time, AUC0-∞, was determined as
# AUC0- ∞ = AUC0 − t(last) + Ct(last)⋅ […]
# The fraction of AUC0-∞ accounted for by the extrapolated area under the curve was […]
# %EXTt (last)− 0∞=100⋅AUCt(last)−∞
# After IV dosing, plasma clearance and volume of distribution at steady state of Fexinidazole […]
# were calculated as follows:
# Vss = CL⋅MRT, where MRT is the mean residence time.
# Absolute bioavailability of Fexinidazole was calculated from the ratio of individual oral to […]
# IV dose-normalized AUC0-t(last) and AUC0-∞ values.
# After both doses, Cmax and AUC values of each compound were also normalized to a 1 […]
# pharmacokinetic parameters sorted by compound and route of dosing.
# Plasma concentrations and pharmacokinetic parameters of each compound were reported to […]
# three significant figures.
# 5.1.1. Clinical and Physical Examinations
# Individual clinical signs are reported in Appendix 4. […]
# treatments with Fexinidazole. No meaningful clinical signs were recorded during wash out
# [3] = female, NMRI, mouse, iv, 1 mg/kg, fexinidazole 1 mg/kg iv, read-out: AUC0-24
# [4] = female, NMRI, mouse, iv, 1 mg/kg, fexinidazole 1 mg/kg iv, read-out: Cmax
# [5] = female, NMRI, mouse, po, 25 mg/kg, fexinidazole 25 mg/kg po, female NMRI mice, read-out: Cmax
# [6] = female, NMRI, mouse, po, 25 mg/kg, fexinidazole 25 mg/kg po, read-out: AUC0–24
# [7] = female, NMRI, mouse, fexinidazole 1 mg/kg iv
# [8] = female, NMRI, mouse, fexinidazole 25 mg/kg po
# [9] = dog, oral 10 mg/kg vs IV 1 mg/kg
# [10] = dog, plasma, fexinidazole 1 mg/kg IV, male Beagle dogs, read-out: Cmax (C0.083 for parent)
# [11] = male, Beagle, dog, plasma, fexinidazole 1 mg/kg IV
# [12] = male, Beagle, dog, plasma, fexinidazole 10 mg/kg oral
# [13] = male, Beagle, dog, plasma, fexinidazole 10 mg/kg oral, read-out: Cmax
Structure (SMILES),"AUC(0-t) [1, 3] [ng·h/mL]","Cmax [1, 4] [ng/mL]","Cmax [1, 5] [ng/mL]","AUC(0-t) [1, 6] [ng·h/mL]","AUC(0-inf) [1, 7] [ng·h/mL]","Tmax [1, 7] [min]","half-life [1, 7] [min]","AUC(0-inf) [1, 8] [ng·h/mL]","Tmax [1, 8] [min]","half-life [1, 8] [min]","bioavailability ([1]; female, NMRI, mouse) [%]","Cmax [2, 10] [ng/mL]","AUC(0-inf) [2, 11] [ng·h/mL]","AUC(0-t) [2, 11] [ng·h/mL]","half-life [2, 11] [min]","AUC(0-inf) [2, 12] [ng·h/mL]","Tmax [2, 12] [min]","AUC(0-t) [2, 12] [ng·h/mL]","Cmax [2, 13] [ng/mL]","half-life [2, 12] [min]",other results
"CSc1ccc(OCc2ncc([N+](=O)[O-])n2C)cc1 [Fexinidazole, 1-methyl-2-((p-(methylthio)phenoxy)methyl)-5-nitroimidazole]",41,164,500,424,42,5,6,439,15,48,41.4,320 ± 136,70.6 ± 33.8,66.9 ± 31.8,24.4,85.3 ± 1.27,40,57.2 ± 13.4,24.2 ± 5.86,116,"clinical signs ([1]; 1 mg/kg iv or 25 mg/kg po): No clinical signs were observed; bioavailability ([1]; female, mouse): 41%; Cmax ([1]; fexinidazole 25 mg/kg po, female NMRI mice): 500 ng/mL; clinical signs ([2]; 1 mg/kg IV and 10 mg/kg oral): No significant treatment related clinical signs; F% AUC0-t(last) [2, 9]: 10% and 9.60 ±4.32%; F% AUC0-∞ [2, 9]: 14.1%; clearance ([2]; male, Beagle, dog, plasma, 1 mg/kg IV): 273 mL/min/kg; Vd ([2]; male, Beagle, dog, plasma, 1 mg/kg IV, read-out: Vss): 3.26 L/kg"
Cn1c([N+](=O)[O-])cnc1COc1ccc(S(C)(=O)=O)cc1 [Fexinidazole sulfone],7990,511,,96300,,120,,96300,240,102,48.8,681 ± 162,,5270 ± 1230,,,400,44700 ± 3810,3260 ± 762,,"Cmax ([1]; fexinidazole 1 mg/kg iv): 790.4 ng/mL; Cmax ([1]; fexinidazole 25 mg/kg po, female NMRI mice, listed as Sulfone): 13651.3 ng/mL; Cmax ([1]; fexinidazole 25 mg/kg po, female NMRI mice, listed as Sulfone metabolite): 13651 ng/mL; Cmax ([1]; fexinidazole 25 mg/kg po, female NMRI mice, listed as sulfone): 6599.6 ng/mL; AUC0–24 ([1]; fexinidazole 25 mg/kg po, listed as Sulfone metabolite): 96286 ng·h/mL; Tmax [2, 11]: 280 min"
Cn1c([N+](=O)[O-])cnc1COc1ccc([S+](C)[O-])cc1 (centres unmarked) [Fexinidazole sulfoxide],1590,918,14200,45000,1560,15,36,45000,30,60,,763 ± 45.3,1520 ± 208,1480 ± 197,69.6,8780 ± 895,70.2,8560 ± 767,1900 ± 186,343,"AUC0–24 ([1]; fexinidazole 25 mg/kg po, listed as Sulfoxide metabolite): 45031 ng·h/mL; Tmax [2, 11]: 11.6 min"
